From paper PMC9354638, “Targeting p21-activated kinase 4 (PAK4) with pyrazolo[3,4-d]pyrimidine derivative SPA7012 attenuates hepatic ischaemia-reperfusion injury in mice” (Journal of Enzyme Inhibition and Medicinal Chemistry, 2022)

Assays:
Assay in all cases: HotSpot kinase assay, PAK subtype selectivity
Type in all cases: biochemical
PAK2 = target: T1, PAK2 (Homo sapiens, UniProt Q13177); conditions: relative percentage inhibition at 20 μM with staurosporine
T1 construct: purchased Reaction Biology Corporation (Malvern, PA, USA)
T1 sequence (Q13177 whole entry): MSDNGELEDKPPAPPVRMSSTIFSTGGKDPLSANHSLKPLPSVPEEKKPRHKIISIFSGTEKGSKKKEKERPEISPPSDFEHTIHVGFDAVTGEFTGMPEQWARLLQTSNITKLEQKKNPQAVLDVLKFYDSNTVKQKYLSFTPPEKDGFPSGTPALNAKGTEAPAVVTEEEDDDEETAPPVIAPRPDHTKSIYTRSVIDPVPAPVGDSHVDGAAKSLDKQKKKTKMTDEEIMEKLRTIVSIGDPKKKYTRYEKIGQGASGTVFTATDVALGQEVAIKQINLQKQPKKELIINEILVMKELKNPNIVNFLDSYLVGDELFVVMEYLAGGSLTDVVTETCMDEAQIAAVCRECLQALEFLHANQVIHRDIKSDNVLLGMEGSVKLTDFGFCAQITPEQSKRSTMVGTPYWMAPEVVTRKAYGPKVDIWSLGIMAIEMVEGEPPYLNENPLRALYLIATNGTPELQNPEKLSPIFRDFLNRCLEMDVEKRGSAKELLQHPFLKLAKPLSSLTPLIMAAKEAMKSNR
Protocol: (§1) To examine the enzyme activity, HotSpot kinase assay was performed at Reaction Biology Corporation (Malvern, PA, USA). The kinase and substrate pairs were prepared in reaction buffer: 20 mM HEPES at pH 7.5, 10 mM MgCl2, 1 mM EGTA, 0.02% Brij 35, 0.02 mg/mL BSA, 0.1 mM Na3VO4, 2 mM DTT, and 1% DMSO. Compounds were added into the kinase reaction mixture and incubated for 20 min. Then, ^32 P-ATP was introduced to the mixture to initiate the reaction carried out at 10 μM of ATP concentration. After 2 h at room temperature, the mixture was spotted onto P81 ion exchange paper and kinase activity was then evaluated utilising the filter-binding method. Compounds were tested for single dose enzyme inhibition at a concentration of 20 μM. For the control compound, staurosporine was tested in a 10-dose IC50 mode. To determine the IC50 value, the compounds were tested for 10-doses with 3-fold serial dilution starting at 100 μM.
(§2) Synthesised compounds were evaluated for their in vitro PAK4 enzyme inhibitory activities. In vitro kinase assays were performed using HotSpot kinase assays for relative enzyme inhibitory activity at a single concentration (20 μM) and IC50 assessment at an ATP concentration of 10 μM (Figure 1(B)). […] For the allosteric pocket binder, cyclohexyl group (SPA7012) was preferable to the smaller dimethyl (SPA7011) or hydroxymethyl group (SPA7013), and the aromatic ring (SPA7014) reduced activity compared to the saturated ring (SPA7012). In vitro enzyme IC50 values appeared in the order of SPA7012, SPA7017, and SPA7016. […] Molecular docking analysis was performed on the human PAK4 catalytic domain structure complexed with GNE-2861 (PDB code: 4O0V). The binding pose of SPA7012 overlapped well with the crystal structure of GNE-2861, with the allosteric binder properly positioned in the specific back pocket. The oxygen atom in the tertiary alcohol of the hydrophobic allosteric binder formed hydrogen bonds with the backbone of Phe459 and the side chain of Glu366 (Figure 1(D)). The amine group and nitrogen atom in the pyrazolo[3,4-d]pyrimidine core scaffold also formed hydrogen bonds with Lue398 at the hinge region. Finally, SPA7012 was decided as a lead compound for further examination with satisfactory potency and subtype selectivity.

PAK6 = target: T2, PAK6 (Homo sapiens, UniProt Q9NQU5); conditions: relative percentage inhibition at 20 μM with staurosporine
T2 construct: purchased Reaction Biology Corporation (Malvern, PA, USA)
T2 sequence (Q9NQU5 whole entry): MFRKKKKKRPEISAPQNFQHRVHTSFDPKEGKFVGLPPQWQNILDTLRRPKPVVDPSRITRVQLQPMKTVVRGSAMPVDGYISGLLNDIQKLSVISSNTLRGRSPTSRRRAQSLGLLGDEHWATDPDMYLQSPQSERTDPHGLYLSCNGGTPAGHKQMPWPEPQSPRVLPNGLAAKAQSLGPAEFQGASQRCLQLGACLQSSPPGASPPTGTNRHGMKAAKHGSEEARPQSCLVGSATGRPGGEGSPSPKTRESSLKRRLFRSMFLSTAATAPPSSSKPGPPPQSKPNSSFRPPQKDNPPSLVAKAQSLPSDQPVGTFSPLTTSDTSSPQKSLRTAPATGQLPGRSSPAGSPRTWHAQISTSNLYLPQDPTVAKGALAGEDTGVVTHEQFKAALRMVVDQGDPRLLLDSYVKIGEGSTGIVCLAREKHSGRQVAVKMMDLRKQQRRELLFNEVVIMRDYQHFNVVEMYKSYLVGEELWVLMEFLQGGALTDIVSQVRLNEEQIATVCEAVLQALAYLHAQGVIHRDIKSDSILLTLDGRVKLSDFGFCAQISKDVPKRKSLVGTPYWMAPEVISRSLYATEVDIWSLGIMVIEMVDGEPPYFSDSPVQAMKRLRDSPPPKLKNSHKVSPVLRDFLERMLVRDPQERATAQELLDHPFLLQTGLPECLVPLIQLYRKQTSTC
Protocol: as §1, §2

PAK1 = target: T3, PAK1 (Homo sapiens, UniProt Q13153); conditions: relative percentage inhibition at 20 μM with staurosporine
T3 construct: purchased Reaction Biology Corporation (Malvern, PA, USA)
T3 sequence (Q13153 whole entry): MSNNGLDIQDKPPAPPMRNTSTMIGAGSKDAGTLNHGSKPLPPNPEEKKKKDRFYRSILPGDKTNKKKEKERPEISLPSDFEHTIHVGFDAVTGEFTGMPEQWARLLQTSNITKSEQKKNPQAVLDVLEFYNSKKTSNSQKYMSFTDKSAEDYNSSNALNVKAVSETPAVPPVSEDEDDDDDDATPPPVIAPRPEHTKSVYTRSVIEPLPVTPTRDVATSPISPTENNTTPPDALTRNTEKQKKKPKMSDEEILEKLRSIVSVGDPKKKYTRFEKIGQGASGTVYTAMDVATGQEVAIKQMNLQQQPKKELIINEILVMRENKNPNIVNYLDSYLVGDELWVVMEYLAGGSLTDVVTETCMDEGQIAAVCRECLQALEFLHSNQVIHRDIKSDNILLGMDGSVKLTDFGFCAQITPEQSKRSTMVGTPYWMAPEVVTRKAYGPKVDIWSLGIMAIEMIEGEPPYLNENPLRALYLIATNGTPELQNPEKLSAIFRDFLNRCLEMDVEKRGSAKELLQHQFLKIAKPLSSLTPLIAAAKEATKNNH
Protocol: as §1, §2

PAK5 = target: T4, PAK5 (Homo sapiens, UniProt Q9P286)
T4 construct: purchased Reaction Biology Corporation (Malvern, PA, USA)
T4 sequence (Q9P286 whole entry): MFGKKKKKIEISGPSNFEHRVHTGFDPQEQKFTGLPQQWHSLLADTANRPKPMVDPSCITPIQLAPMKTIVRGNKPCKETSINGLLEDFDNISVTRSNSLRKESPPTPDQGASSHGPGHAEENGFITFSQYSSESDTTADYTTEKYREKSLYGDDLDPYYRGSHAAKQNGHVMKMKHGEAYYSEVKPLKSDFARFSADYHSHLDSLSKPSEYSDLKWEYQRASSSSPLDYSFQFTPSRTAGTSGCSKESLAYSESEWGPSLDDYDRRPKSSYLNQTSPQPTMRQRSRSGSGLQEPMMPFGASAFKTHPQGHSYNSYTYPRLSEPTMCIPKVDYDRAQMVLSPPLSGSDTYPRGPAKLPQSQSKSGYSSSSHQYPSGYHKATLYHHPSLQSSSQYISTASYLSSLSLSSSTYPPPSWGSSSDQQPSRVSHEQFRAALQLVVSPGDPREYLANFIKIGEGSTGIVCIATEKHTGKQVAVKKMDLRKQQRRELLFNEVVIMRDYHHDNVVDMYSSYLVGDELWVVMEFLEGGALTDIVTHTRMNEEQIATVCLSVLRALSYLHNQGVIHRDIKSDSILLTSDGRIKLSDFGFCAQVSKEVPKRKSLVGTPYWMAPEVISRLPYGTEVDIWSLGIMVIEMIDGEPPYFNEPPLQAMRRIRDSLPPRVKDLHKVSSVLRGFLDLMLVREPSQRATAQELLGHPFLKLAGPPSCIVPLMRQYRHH
Protocol: as §1, §2

PAK3 = target: T5, PAK3 (Homo sapiens, UniProt O75914); conditions: relative percentage inhibition at 20 μM with staurosporine
T5 construct: purchased Reaction Biology Corporation (Malvern, PA, USA)
T5 sequence (O75914 whole entry): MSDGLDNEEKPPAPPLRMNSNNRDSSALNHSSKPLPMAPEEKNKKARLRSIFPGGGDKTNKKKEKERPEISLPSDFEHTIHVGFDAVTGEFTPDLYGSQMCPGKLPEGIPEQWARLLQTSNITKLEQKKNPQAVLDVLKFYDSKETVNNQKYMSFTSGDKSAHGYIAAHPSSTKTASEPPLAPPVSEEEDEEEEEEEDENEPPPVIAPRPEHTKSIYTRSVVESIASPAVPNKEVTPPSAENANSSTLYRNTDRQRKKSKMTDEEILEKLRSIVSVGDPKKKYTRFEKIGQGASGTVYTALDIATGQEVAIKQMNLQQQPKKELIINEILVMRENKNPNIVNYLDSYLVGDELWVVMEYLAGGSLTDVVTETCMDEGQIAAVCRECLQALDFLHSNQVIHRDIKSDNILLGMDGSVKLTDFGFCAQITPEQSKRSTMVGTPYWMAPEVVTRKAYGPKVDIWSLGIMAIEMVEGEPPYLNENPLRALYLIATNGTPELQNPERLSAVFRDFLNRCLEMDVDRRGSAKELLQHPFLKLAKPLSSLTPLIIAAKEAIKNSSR
Protocol: as §1, §2

## Cc1nn(-c2cccc(C#CC3(O)CCCCC3)c2)c2ncnc(N)c12 [Compound 14b, 3-(4-Amino-3-methylpyrazolo[3,4-d]pyrimidin-1-yl)phenylethynylcyclohexan-1-ol]
PAK2
  PAK2 % inhibitory activity: 36%
PAK6
  PAK6 % inhibitory activity: 36%
PAK1
  PAK1 % inhibitory activity: 16%
PAK5; HotSpot kinase assay
  IC50: > 100 µM
PAK5; relative percentage inhibition at 20 μM with staurosporine
  PAK5 % inhibitory activity: 52%
PAK3
  PAK3 % inhibitory activity: 5%
